{"source": "patent US20200289525A1", "about": "“Methods of Increasing Microbial Diversity of a Skin Microbiota” (The Procter & Gamble Company, priority 2019, published 2020)", "key": {"[1]": {"test_system": "skin microbiota", "conditions": "atopic dermatitis lesion area, baseline vs four weeks of daily washes", "protocol": "The effect of zinc pyrithione body wash on skin microbiota of subjects with atopic dermatitis with lesions was assessed using a standard leg wash assay. Subjects completed a 4-week period of daily leg washes with zinc pyrithione (BCP2ZPT), a B7U bar soap, or a vehicle control (BCP2). Samples were collected at baseline (study onset) and after 4 weeks of leg washings.\nAnother study was conducted to specifically assess the effect of a zinc ionophore, i.e., zinc pyrithione, on the skin microbiota diversity of atopic dermatitis lesions using standard body wash protocol well-known in the art. The washes were carried out on a daily basis over a four-week period and 16S rDNA sequencing was used to identify bacterial genera while qPCR amplification was used to quantify the abundance of the genera. Measurements were taken at baseline and after the four-week wash period. Controls involved subjects washing with B7U bar soap or the BCP2 vehicle alone. […]"}, "[2]": {"test_system": "skin microbiota", "test": "Four-week daily wash of atopic dermatitis without lesions, 16S rDNA sequencing and qPCR (FIG. 6)", "assay_type": "in vivo, human", "conditions": "baseline vs four weeks of daily washing, p=0.027, FDR>0.05", "protocol": "A study mirroring the study described in the brief description of FIG. 5 was conducted with subjects having atopic dermatitis without lesions substituted for subjects with atopic dermatitis with lesions. The relative abundance of Staphylococcus was measured using 16S rDNA sequencing and qPCR quantification. Subjects performed the standard leg wash using B7U bar soap, vehicle only (BCP2), or zinc pyrithione in BCP2 vehicle (BCP2ZPT). Samples were taken at the onset of the study to establish a baseline and after four weeks of leg washings.\nA related experiment assessing the treatment effects of a zinc ionophore on skin microbiota diversity in subjects with atopic dermatitis without lesions was performed to assess the effects of the therapeutic in this context. The experimental design involved daily body washes of subjects with atopic dermatitis lacking visible lesions over a four-week period, with subjects engaging in daily washing with either B7U bar soap, vehicle alone (BCP2 base), or BCP2ZPT (which included 0.5% zinc pyrithione). Skin samples were again analyzed for microbiota composition by 16S rDNA sequencing with qPCR to quantify the abundances of the bacterial genera in the skin microbiotas."}, "[3]": {"test_system": "skin microbiota", "conditions": "four-week wash period", "description": "Only qualified subjects with atopic dermatitis received treatment products during the treatment phase. These qualified subjects were each divided into three treatment groups. […]\nSamples of microbiotas from skin with atopic dermatitis were subjected to sequence analyses to identify the various genera present on the skin and to measure relative abundances. In a first sequencing round, read lengths of 150-800 bp were obtained using the Closed OTU picking method. […] The second sequencing round yielded read lengths of 250-600 bp using the Cosed OTU picking method. […] The third sequencing round involved read lengths of 250-600 bp being obtained using the Cosed OTU picking method. […]\nA study was conducted of the effect on skin microbiota of single washes or four-week wash periods of either a 0.5% zinc pyrithione body wash, a vehicle body wash, or a B7U bar soap wash. The relative abundances of 11 identified bacterial genera were monitored, along with a category of unclassified microbes. […]"}, "[4]": {"test_system": "skin microbiota", "conditions": "skin having atopic dermatitis, in a body wash"}}, "note": "“Also recorded” adds a separate entry of the source. Like-named read-outs stand apart in the source and are kept apart here.", "data": [{"smiles": "[O-]n1ccccc1=S.[O-]n1ccccc1=S.[Zn+2]", "note": "[zinc pyrithione, zinc salt of 1-hydroxy-2-pyridinethione]", "values": [{"measurement": "abundance of Kocuria", "setting": "[1]", "value": "increased"}, {"measurement": "abundance of Staphylococcus", "setting": "[2]", "value": "significantly reduced; also recorded: selective reduction"}, {"measurement": "relative abundance of Staphylococcus", "setting": "[3]; atopic dermatitis patients not exhibiting lesions", "value": "selectively reduces"}, {"measurement": "relative abundance of Staphylococcus", "setting": "[3]; subjects with atopic dermatitis lesions", "value": "selectively reduces"}, {"measurement": "total bacterial level", "setting": "[4]", "value": "lowers"}]}]}
